Experiments:
[1] = target: T1, D2 receptor (long isoform, D2L) (Rattus norvegicus, UniProt P61169); settings: competition for [3H]methylspiperone binding
Protocol: (§1) A 2.4-kb Xba I-Xho I fragment containing the entire coding region and most of the D2 receptor cDNA was excised from the pBluescript clone and ligated into the corresponding restriction sites of the pEUK-C1 vector (Clontech, Palo Alto, Calif.) The resulting plasmid, pEUK-D2L, was then transfected into COS-7 cells using a modified CaPO4 precipitation method (Clontech). The cells were treated with 3 mM sodium butyrate after 48 hr and were harvested after 72 hr.

[2] = target: T1, D2 receptor (long isoform, D2L); test: biochemical; settings: transfected COS-7 cell membranes
Protocol: as §1

T1 sequence (P61169 whole entry, canonical isoform): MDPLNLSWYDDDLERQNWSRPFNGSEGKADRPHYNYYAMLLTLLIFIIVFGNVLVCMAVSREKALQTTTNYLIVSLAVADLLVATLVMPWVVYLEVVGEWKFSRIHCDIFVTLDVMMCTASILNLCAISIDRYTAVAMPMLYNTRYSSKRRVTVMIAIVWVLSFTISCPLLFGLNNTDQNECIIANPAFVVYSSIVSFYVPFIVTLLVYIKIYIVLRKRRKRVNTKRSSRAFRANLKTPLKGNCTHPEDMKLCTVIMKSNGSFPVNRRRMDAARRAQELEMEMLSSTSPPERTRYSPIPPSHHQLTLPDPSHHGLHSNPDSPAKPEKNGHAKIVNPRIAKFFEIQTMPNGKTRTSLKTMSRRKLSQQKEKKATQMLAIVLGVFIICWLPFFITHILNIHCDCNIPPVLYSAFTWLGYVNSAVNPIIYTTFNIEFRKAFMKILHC

Row | Hill coefficient of competition curve ([1]; transfected COS-7 cell membranes) | Kd ([2]; affinity of [3H]methylspiperone saturation binding, mean ± SEM) | Kd ([2]; calculated KD of [3H]methylspiperone binding (Scatchard), one experiment representative of three (FIG. 2A)) | Structure (SMILES) | effect of guanine nucleotides on competition curve ([1]; data not shown)
1 | ≈ 1 | – | – | NCCc1ccc(O)c(O)c1 [Dopamine] | not significantly affected by guanine nucleotides
2 | – | 0.0621 ± 0.0021 nM | 0.0641 nM | CN1CN(c2ccccc2)C2(CCN(CCCC(=O)c3ccc(F)cc3)CC2)C1=O [[3H]methylspiperone] | –

Reference: patent US5128254A (The United States of America as represented by the …, priority 1989, dated 1992)
